According to US9732065B2, “Cyclic aminomethyl pyrimidine derivative” (Sumitomo Dainippon Pharma Co., Ltd., priority 2013, dated 2017):

The compounds below were run against T1, Human dopamine D4 receptor (Homo sapiens, UniProt P21917) (assay: Agonistic/antagonistic activity in G protein dependent pathway (aequorin intracellular calcium luminescence), D4). Settings: read-out: Maximal activity on each receptor (%): D4.
T1 sequence (P21917 1-419): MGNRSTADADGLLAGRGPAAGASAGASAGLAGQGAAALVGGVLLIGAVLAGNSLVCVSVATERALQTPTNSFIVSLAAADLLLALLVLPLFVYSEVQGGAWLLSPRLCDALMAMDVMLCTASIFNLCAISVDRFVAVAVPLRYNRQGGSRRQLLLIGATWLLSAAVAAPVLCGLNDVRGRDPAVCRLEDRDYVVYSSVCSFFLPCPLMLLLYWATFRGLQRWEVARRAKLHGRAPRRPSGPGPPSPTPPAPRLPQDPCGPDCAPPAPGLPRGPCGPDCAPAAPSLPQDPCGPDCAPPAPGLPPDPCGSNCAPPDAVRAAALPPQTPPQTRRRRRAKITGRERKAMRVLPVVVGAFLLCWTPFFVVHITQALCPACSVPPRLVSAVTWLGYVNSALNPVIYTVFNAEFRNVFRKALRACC
Assay type: cell-based
Parameters: expressed in transfected cells; host or cells: CHO-K1 or HEK293 cells
Experimental: Plasmids encoding each receptor, aequorin and Gα16 were prepared, and the plasmids were transfected into CHO cells (Chinese Hamster Ovary cells) or HEK293 cells (Human Embryonic Kidney 293 cells) to prepare expressing cell lines.
The agonistic or antagonistic activity of the present compound in the G protein dependent pathway was evaluated on the basis of intracellular calcium levels as follows. CHO-K1 or HEK293 cell lines transfected with D2, D4, α1A, or α2A receptor genes were seeded in a 384-well plate, and incubated in a CO2 incubator at 37° C. for 24 hours, and then a solution of the present compound in DMSO was added into cells preloaded with coelenterazine to measure the change in luminescent signals with a FDSS (Hamamatsu Photonics K.K.). […] The agonistic activity of the present compound was calculated according to the measured luminescent signals, as the maximal activity (Emax) of the present compound. On the other hand, the antagonistic activity of the present compound was calculated according to the luminescent signals in wells with 10 μM of an endogenous ligand alone defined as 100%, as the inhibitory activity of the present compound to an endogenous ligand. EC50 value was calculated as the concentration of the present compound required to achieve a 50% response, and IC50 was calculated as the concentration of the present compound required to achieve a 50% inhibition of the Emax of an endogenous ligand.
Work on `Nc1ncc(CN2CC=C(c3cccnc3)CC2)cn1` [Example 35] yielded an Emax at 1 µM of 86%. With `Cc1ncc(CN2CCC(c3ccccn3)CC2C)c(N)n1` (stereo not drawn) [Example 38, 2-Methyl-5-[2-methyl-4-(pyridin-2-yl)piperidin-1-ylmethyl]pyrimidin-4-amine] the Emax at 1 µM was 51%. Work on `Cc1ncc(CN2CCC(c3cccnc3)CC2C)c(N)n1` (stereo not drawn) [Example 39, 2-Methyl-5-[2-methyl-4-(pyridin-3-yl)piperidin-1-ylmethyl]pyrimidin-4-amine] yielded an Emax at 1 µM of 49%. In the case of `Cc1ncc(CN2CCC(c3ccccn3)C(C)C2)c(N)n1` (stereo not drawn) [Example 40, 2-Methyl-5-[3-methyl-4-(pyridin-2-yl)piperidin-1-ylmethyl]pyrimidin-4-amine], the Emax at 1 µM is reported as 72%. In the case of `Cc1ncc(CN2CCC(c3cccnc3)C(C)C2)c(N)n1` (stereo not drawn) [Example 41, 2-Methyl-5-[3-methyl-4-(pyridin-3-yl)piperidin-1-ylmethyl]pyrimidin-4-amine], the Emax at 1 µM is reported as 59%. `Cc1ncc(CN2CCCC(c3ccccn3)CC2)c(N)n1` (stereo not drawn) [Example 42, 2-Methyl-5-[4-(pyridin-2-yl)azepan-1-ylmethyl]pyrimidin-4-amine] gave an Emax at 1 µM of 71%. Work on `Cc1ncc(CN2CCCC(c3cccnc3)CC2)c(N)n1` (stereo not drawn) [Example 43, 2-Methyl-5-[4-(pyridin-3-yl)azepan-1-ylmethyl]pyrimidin-4-amine] yielded an Emax at 1 µM of 92%. In the case of `Cc1ncc(CN2CCC(c3nccs3)CC2)c(N)n1` [Example 47, 2-Methyl-5-[4-(1,3-thiazol-2-yl)piperidin-1-ylmethyl]pyrimidin-4-amine], the Emax at 1 µM is reported as 51%. Work on `Cc1ncc(CN2CCC(c3cncc(F)c3)CC2)c(C)n1` [Example 48, 5-[4-(5-Fluoropyridin-3-yl)piperidin-1-ylmethyl]-2,4-dimethylpyrimidine] yielded an Emax at 1 µM of 62%. Compound `Cc1ncc(CN2CC=C(c3cccnc3)CC2)c(C)n1` [Example 49] has an Emax at 1 µM of 66%. Work on `Cc1ncc(CN2CC=C(c3ccccn3)CC2)c(C)n1` [Example 50] yielded an Emax at 1 µM of 70%. For `Cc1ccnc(C2=CCN(Cc3cnc(C)nc3N)CC2)c1` [Example 51], the Emax at 1 µM was 88%. In the case of `Cc1cccc(C2=CCN(Cc3cnc(C)nc3N)CC2)n1` [Example 52], the Emax at 1 µM is reported as 67%. `Cc1cncc(C2CCN(Cc3cnc(C)nc3N)CC2)c1` [Example 53] was tested, and the Emax at 1 µM was 66%. Work on `Cc1cncc(C2=CCN(Cc3cnc(C)nc3N)CC2)c1` [Example 54] yielded an Emax at 1 µM of 60%. Work on `Cc1ncc(CN2CC=C(c3cc(Cl)ccn3)CC2)c(N)n1` [Example 55] yielded an Emax at 1 µM of 88%. Work on `Cc1ncc(CN2CC=C(c3cccc(Cl)n3)CC2)c(N)n1` [Example 56] yielded an Emax at 1 µM of 40%. Work on `Cc1ccnc(C2CCN(Cc3cnc(C)nc3N)CC2)c1` [Example 57, 2-Methyl-5-[4-(4-methylpyridin-2-yl)piperidin-1-ylmethyl]pyrimidin-4-amine] yielded an Emax at 1 µM of 62%.
